Laboratory results as given in patent publication US10449245B2 (priority 2014, dated 2019).
Values joined by “and” are separate entries in the source; they are usually repeats but may differ in a detail not shown here. Equal entries are not always repeated.

Legend:
[1] = tested on: HIV-1; test: Plasma HIV RNA quantitative viral load (Cobas TaqMan HIV-1 Test v2.0), REDUC Part A; type: in vivo, human; conditions: for HIV VL: individual subjects 1101, 1102, 1103, 1105, 1106, 1107 = c1-c6, romidepsin 5 mg/m^2 i.v. days 0, 7, 14
Procedure: Part A of the clinical study contained three phases. […] Second, a viral reactivation phase of 3 weeks (visit 2 to visit 7) consisting of one cycle of romidepsin infusions at a dosing of 5 mg/m^2 administered intravenously over a 4 hour period. De-escalation down to 2.5 mg/m^2 was planned in case of dose-limiting toxicity was observed. Romidepsin was infused on days 0, 7, and 14. Third, a post-activation phase of ˜9 weeks (visit 8 to visit 11) to assess the effect of romidepsin on the size of latent HIV-1I reservoir.
Plasma HIV RNA, quantitative viral load, was measured by Cobas® TaqMan® HIV-1 Test, v2.0 (Roche) according the manufacturer's instruction (routine clinical assay). The lower limit of quantification for this assay is 20 copies HIV-1 RNA/mL, but it provides a qualitative assessment below this.

[2] = tested on: latently infected cell lines and primary T cells; conditions: cited from earlier work
[3] = tested on: HIV-1; test: Plasma HIV-1 RNA by transcription mediated amplification (TMA) NAT screen, REDUC Part A; type: in vivo, human; conditions: for TMA assay, Percent positive: share of subjects positive; for TMA assay, Percent positive / TMA assay, presence of HIV RNA: romidepsin 5 mg/m^2 i.v. days 0, 7, 14; for TMA assay, presence of HIV RNA: individual subjects 1101, 1102, 1103, 1105, 1106, 1107 = c1-c6
[4] = human, in vivo
Procedure: Part A of the clinical study contained three phases. First, a pre-treatment phase of 2-4 weeks (visit 1-visit 2a) to confirm the stability of the latent HIV-1 reservoir and determine baseline HIV-1 T lymphocyte specific immunity. Second, a viral reactivation phase of 3 weeks (visit 2 to visit 7) consisting of one cycle of romidepsin infusions at a dosing of 5 mg/m^2 administered intravenously over a 4 hour period. De-escalation down to 2.5 mg/m^2 was planned in case of dose-limiting toxicity was observed. Romidepsin was infused on days 0, 7, and 14. Third, a post-activation phase of ˜9 weeks (visit 8 to visit 11) to assess the effect of romidepsin on the size of latent HIV-1I reservoir.
The primary objective of this part of the study was to evaluate the safety and tolerability of romidepsin at a reduced dosing of 5 mg/m^2 in HIV-infected patients.
The primary endpoint of this part was safety and tolerability; evaluation as measured by adverse events (AE), adverse reactions (AR), serious adverse events (SAE), serious adverse reactions (SAR), serious unexpected adverse reactions (SUSAR).

[5] = visit 1 (day −21, pre-treatment)
[6] = visit 2A (day 0, pre-treatment)

C/C=C1\NC(=O)[C@H]2CSSCC/C=C/[C@H](CC(=O)N[C@H](C(C)C)C(=O)N2)OC(=O)[C@H](C(C)C)NC1=O [romidepsin, (1S,4S,7Z,10S,16E,21R)-7-ethylidene-4,21-bis(1-methylethyl)-2-oxa-12,13-dithia-5,8,20,23-tetraazabicyclo[8.7.6]tricos-16-ene-3,6,9,19,22-pentone]
extracellular HIV RNA, change ([1]; as a result of romidepsin infusion): significantly increased | plasma HIV-1 RNA ([1]; at baseline): < 20 copies/mL | patients with plasma HIV-1 RNA increased to readily quantifiable levels ([1]; at multiple post-infusion time-points): 5 of 6 | plasma HIV-1 RNA ([1]; range following the second infusion, standard clinical assay): 46-103 copies/mL | HIV VL [1, 5]: LOQ (LOQ = “detectable” not quantifiable HIV RNA<20 c/mL) (3×) and 40 HIV RNA copies/mL plasma and LOD (2×) | HIV VL [1, 6]: LOD | HIV VL ([1]; visit 2B (day 0 + 4 h)): LOQ (LOQ = “detectable” not quantifiable HIV RNA<20 c/mL) and LOD (5×) | HIV VL ([1]; visit 3 (day 1)): 26 HIV RNA copies/mL plasma and LOD (2×) and LOQ (LOQ = “detectable” not quantifiable HIV RNA<20 c/mL) (2×) and 27 HIV RNA copies/mL plasma | HIV VL ([1]; visit 4 (day 3)): LOQ (LOQ = “detectable” not quantifiable HIV RNA<20 c/mL) and 32 HIV RNA copies/mL plasma and LOD (4×) | HIV VL ([1]; visit 5A (day 7)): LOQ (LOQ = “detectable” not quantifiable HIV RNA<20 c/mL) and LOD (5×) | HIV VL ([1]; visit 5B (day 7 + 4 h)): 21 HIV RNA copies/mL plasma and LOD (3×) and 54 HIV RNA copies/mL plasma and LOQ (LOQ = “detectable” not quantifiable HIV RNA<20 c/mL) | HIV VL ([1]; visit 6 (day 10)): 59 HIV RNA copies/mL plasma and 74 HIV RNA copies/mL plasma and LOQ (LOQ = “detectable” not quantifiable HIV RNA<20 c/mL) and LOD and 46 HIV RNA copies/mL plasma and 103 HIV RNA copies/mL plasma | HIV VL ([1]; visit 7A (day 14)): LOD (5×) and LOQ (LOQ = “detectable” not quantifiable HIV RNA<20 c/mL) | HIV VL ([1]; visit 7B (day 14 + 4 h)): LOQ (LOQ = “detectable” not quantifiable HIV RNA<20 c/mL) and LOD (5×) | HIV VL ([1]; visit 9 (day 21)): LOQ (LOQ = “detectable” not quantifiable HIV RNA<20 c/mL) (3×) and LOD (3×) | HIV VL ([1]; visit 10 (day 56)): LOD (3×) and 42 HIV RNA copies/mL plasma and LOQ (LOQ = “detectable” not quantifiable HIV RNA<20 c/mL) (2×) | HIV VL ([1]; visit 11 (day 84)): LOQ (LOQ = “detectable” not quantifiable HIV RNA<20 c/mL) and LOD (4×) and 68 HIV RNA copies/mL plasma | HIV VL ([1]; visit V8 (day 17)): 22 HIV RNA copies/mL plasma and LOD (2×) and LOQ (LOQ = “detectable” not quantifiable HIV RNA<20 c/mL) and 119 HIV RNA copies/mL plasma | activation of HIV-1 expression [2]: potently activates HIV-1 expression | TMA assay, Percent positive ([3]; Visit 1 (day −21, pre-treatment)): 50% | TMA assay, Percent positive ([3]; Visit 2A (day 0, pre-treatment)): 50% | TMA assay, Percent positive ([3]; Visit 2B (day 0 + 4 h)): 67% | TMA assay, Percent positive ([3]; Visit 3 (day 1)): 83% | TMA assay, Percent positive ([3]; Visit 4 (day 3)): 83% | TMA assay, Percent positive ([3]; Visit 5A (day 7)): 50% | TMA assay, Percent positive ([3]; Visit 5B (day 7 + 4 h)): 100% | TMA assay, Percent positive ([3]; Visit 6 (day 10)): 100% | TMA assay, Percent positive ([3]; Visit 7A (day 14)): 50% | TMA assay, Percent positive ([3]; Visit 7B (day 14 + 4 h)): 67% | TMA assay, Percent positive ([3]; Visit 8 (day 17)): 100% | TMA assay, Percent positive ([3]; Visit 9 (day 21)): 33% | Plasma HIV-1 RNA detection by transcription-mediated amplification assay ([3]; post-infusion time-points compared with baseline): detected more frequently | TMA assay, presence of HIV RNA [3, 5]: 1 (3×) and 0 (3×) | TMA assay, presence of HIV RNA [3, 6]: 1 (3×) and 0 (3×) | TMA assay, presence of HIV RNA ([3]; visit 2B (day 0 + 4 h)): 1 (4×) and 0 (2×) | TMA assay, presence of HIV RNA ([3]; visit 3 (day 1)): 1 (5×) and 0 | TMA assay, presence of HIV RNA ([3]; visit 4 (day 3)): 1 (5×) and 0 | TMA assay, presence of HIV RNA ([3]; visit 5A (day 7)): 1 (3×) and 0 (3×) | TMA assay, presence of HIV RNA ([3]; visit 5B (day 7 + 4 h)): 1 | TMA assay, presence of HIV RNA ([3]; visit 6 (day 10)): 1 | TMA assay, presence of HIV RNA ([3]; visit 7A (day 14)): 1 (3×) and 0 (3×) | TMA assay, presence of HIV RNA ([3]; visit 7B (day 14 + 4 h)): 1 (4×) and 0 (2×) | TMA assay, presence of HIV RNA ([3]; visit 8 (day 17)): 1 | TMA assay, presence of HIV RNA ([3]; visit 9 (day 21)): 0 (4×) and 1 (2×) | grade II AEs [4]: Two
